# Calls of active or inactive are those of the source. How the calls were made is not given here.
# Tested on: Escherichia coli
# Experiment: Antibacterial activity against Escherichia coli after 24 hrs by broth microdilution method
# Type: functional, organism-based
# Details: not given
row,Compound,Activity
1,CCCCc1cccc2c(C3=C(Br)C(=O)NC3=O)c(-c3ccccc3)[nH]c12,inactive
2,O=C1NC(=O)C(c2c(-c3ccc(OCc4cccc5ccccc45)cc3)[nH]c3ccccc23)=C1Br,inactive
3,CCCCc1ccc2[nH]c(-c3ccccc3)c(C3=C(Br)C(=O)NC3=O)c2c1,inactive
4,O=C(CCCc1[nH]c2ccccc2c1C1=C(Br)C(=O)NC1=O)Nc1ccccc1,inactive
5,CCCc1cccc2c(C3=C(Br)C(=O)NC3=O)c(-c3ccc(OC)cc3)[nH]c12,inactive
6,CCc1cccc2c(C3=C(Br)C(=O)NC3=O)c(-c3ccccc3)[nH]c12,inactive
7,CCCCCCOc1ccc2[nH]c(-c3ccc(OC)cc3)c(C3=C(Br)C(=O)NC3=O)c2c1,inactive
8,COc1cccc(-c2[nH]c3ccc(OC)cc3c2C2=C(Br)C(=O)NC2=O)c1,inactive
9,CCCOc1ccc2[nH]c(-c3ccccc3)c(C3=C(Br)C(=O)NC3=O)c2c1,inactive
10,CCOc1ccc2[nH]c(-c3cccc(OC)c3)c(C3=C(Br)C(=O)NC3=O)c2c1,inactive
11,COc1cccc(-c2[nH]c3ccc(C)cc3c2C2=C(Br)C(=O)NC2=O)c1,inactive
12,Cc1cccc(NC(=O)CCCc2[nH]c3ccccc3c2C2=C(Br)C(=O)NC2=O)c1,inactive
13,CCc1ccc2[nH]c(-c3ccccc3)c(C3=C(Br)C(=O)NC3=O)c2c1,inactive
14,O=C(CCCCCCc1[nH]c2ccccc2c1C1=C(Br)C(=O)NC1=O)Nc1ccccc1,inactive
15,Cc1cccc2c(C3=C(Br)C(=O)NC3=O)c(-c3ccccc3)[nH]c12,inactive
16,CCCCCCc1ccc2[nH]c(-c3ccc(OC)cc3)c(C3=C(Br)C(=O)NC3=O)c2c1,inactive
17,CCCCOc1ccc2[nH]c(-c3ccc(OC)cc3)c(C3=C(Br)C(=O)NC3=O)c2c1,inactive
18,CCCOc1ccc2[nH]c(-c3ccc(OC)cc3)c(C3=C(Br)C(=O)NC3=O)c2c1,inactive
19,CCCCCCOc1ccc2[nH]c(-c3ccccc3)c(C3=C(Br)C(=O)NC3=O)c2c1,inactive

# Tested on: Staphylococcus aureus
# Experiment: Antibacterial activity against Staphylococcus aureus 134/93 after 24 hrs by broth microdilution method
# Type: functional
# Details: not given
row,Compound,-logMIC
1,CCCCc1cccc2c(C3=C(Br)C(=O)NC3=O)c(-c3ccccc3)[nH]c12,6.6
2,O=C1NC(=O)C(c2c(-c3ccc(OCc4cccc5ccccc45)cc3)[nH]c3ccccc23)=C1Br,5.8
3,CCCCc1ccc2[nH]c(-c3ccccc3)c(C3=C(Br)C(=O)NC3=O)c2c1,6.6
4,O=C(CCCc1[nH]c2ccccc2c1C1=C(Br)C(=O)NC1=O)Nc1ccccc1,5.8
5,CCCc1cccc2c(C3=C(Br)C(=O)NC3=O)c(-c3ccc(OC)cc3)[nH]c12,6.3
6,CCc1cccc2c(C3=C(Br)C(=O)NC3=O)c(-c3ccccc3)[nH]c12,5.7
7,COc1cccc(-c2[nH]c3ccc(OC)cc3c2C2=C(Br)C(=O)NC2=O)c1,5.7
8,CCCOc1ccc2[nH]c(-c3ccccc3)c(C3=C(Br)C(=O)NC3=O)c2c1,6
9,CCOc1ccc2[nH]c(-c3cccc(OC)c3)c(C3=C(Br)C(=O)NC3=O)c2c1,5.5
10,COc1cccc(-c2[nH]c3ccc(C)cc3c2C2=C(Br)C(=O)NC2=O)c1,6.6
11,Cc1cccc(NC(=O)CCCc2[nH]c3ccccc3c2C2=C(Br)C(=O)NC2=O)c1,6.1
12,CCc1ccc2[nH]c(-c3ccccc3)c(C3=C(Br)C(=O)NC3=O)c2c1,6.9
13,O=C(O)c1cn(C2CC2)c2cc(N3CCNCC3)c(F)cc2c1=O [CIPROFLOXACIN],4.4
14,O=C(CCCCCCc1[nH]c2ccccc2c1C1=C(Br)C(=O)NC1=O)Nc1ccccc1,7
15,Cc1cccc2c(C3=C(Br)C(=O)NC3=O)c(-c3ccccc3)[nH]c12,5.4
16,CCCCOc1ccc2[nH]c(-c3ccc(OC)cc3)c(C3=C(Br)C(=O)NC3=O)c2c1,7
17,CCCOc1ccc2[nH]c(-c3ccc(OC)cc3)c(C3=C(Br)C(=O)NC3=O)c2c1,6.4

# Same assay, conditions: Staphylococcus aureus, 134/93, 24 h
row,MIC,Compound
1,0.25 µM,CCCCc1cccc2c(C3=C(Br)C(=O)NC3=O)c(-c3ccccc3)[nH]c12
2,1.5 µM,O=C1NC(=O)C(c2c(-c3ccc(OCc4cccc5ccccc45)cc3)[nH]c3ccccc23)=C1Br
3,0.24 µM,CCCCc1ccc2[nH]c(-c3ccccc3)c(C3=C(Br)C(=O)NC3=O)c2c1
4,1.7 µM,O=C(CCCc1[nH]c2ccccc2c1C1=C(Br)C(=O)NC1=O)Nc1ccccc1
5,0.5 µM,CCCc1cccc2c(C3=C(Br)C(=O)NC3=O)c(-c3ccc(OC)cc3)[nH]c12
6,2.51 µM,CCc1cccc2c(C3=C(Br)C(=O)NC3=O)c(-c3ccccc3)[nH]c12
7,1.9 µM,COc1cccc(-c2[nH]c3ccc(OC)cc3c2C2=C(Br)C(=O)NC2=O)c1
8,0.95 µM,CCCOc1ccc2[nH]c(-c3ccccc3)c(C3=C(Br)C(=O)NC3=O)c2c1
9,3.5 µM,CCOc1ccc2[nH]c(-c3cccc(OC)c3)c(C3=C(Br)C(=O)NC3=O)c2c1
10,0.2 µM,COc1cccc(-c2[nH]c3ccc(C)cc3c2C2=C(Br)C(=O)NC2=O)c1
11,0.79 µM,Cc1cccc(NC(=O)CCCc2[nH]c3ccccc3c2C2=C(Br)C(=O)NC2=O)c1
12,0.13 µM,CCc1ccc2[nH]c(-c3ccccc3)c(C3=C(Br)C(=O)NC3=O)c2c1
13,38.1 µM,O=C(O)c1cn(C2CC2)c2cc(N3CCNCC3)c(F)cc2c1=O [CIPROFLOXACIN]
14,0.1 µM,O=C(CCCCCCc1[nH]c2ccccc2c1C1=C(Br)C(=O)NC1=O)Nc1ccccc1
15,3.98 µM,Cc1cccc2c(C3=C(Br)C(=O)NC3=O)c(-c3ccccc3)[nH]c12
16,0.1 µM,CCCCOc1ccc2[nH]c(-c3ccc(OC)cc3)c(C3=C(Br)C(=O)NC3=O)c2c1
17,0.44 µM,CCCOc1ccc2[nH]c(-c3ccc(OC)cc3)c(C3=C(Br)C(=O)NC3=O)c2c1

# Tested on: Candida albicans
# Experiment: Antibacterial activity against Candida albicans after 24 hrs by broth microdilution method
# Type: functional, organism-based
# Details: not given
row,Compound,Activity
1,CCCCc1cccc2c(C3=C(Br)C(=O)NC3=O)c(-c3ccccc3)[nH]c12,inactive
2,O=C1NC(=O)C(c2c(-c3ccc(OCc4cccc5ccccc45)cc3)[nH]c3ccccc23)=C1Br,inactive
3,CCCCc1ccc2[nH]c(-c3ccccc3)c(C3=C(Br)C(=O)NC3=O)c2c1,inactive
4,O=C(CCCc1[nH]c2ccccc2c1C1=C(Br)C(=O)NC1=O)Nc1ccccc1,inactive
5,CCCc1cccc2c(C3=C(Br)C(=O)NC3=O)c(-c3ccc(OC)cc3)[nH]c12,inactive
6,CCc1cccc2c(C3=C(Br)C(=O)NC3=O)c(-c3ccccc3)[nH]c12,inactive
7,CCCCCCOc1ccc2[nH]c(-c3ccc(OC)cc3)c(C3=C(Br)C(=O)NC3=O)c2c1,inactive
8,COc1cccc(-c2[nH]c3ccc(OC)cc3c2C2=C(Br)C(=O)NC2=O)c1,inactive
9,CCCOc1ccc2[nH]c(-c3ccccc3)c(C3=C(Br)C(=O)NC3=O)c2c1,inactive
10,CCOc1ccc2[nH]c(-c3cccc(OC)c3)c(C3=C(Br)C(=O)NC3=O)c2c1,inactive
11,COc1cccc(-c2[nH]c3ccc(C)cc3c2C2=C(Br)C(=O)NC2=O)c1,inactive
12,Cc1cccc(NC(=O)CCCc2[nH]c3ccccc3c2C2=C(Br)C(=O)NC2=O)c1,inactive
13,CCc1ccc2[nH]c(-c3ccccc3)c(C3=C(Br)C(=O)NC3=O)c2c1,inactive
14,O=C(CCCCCCc1[nH]c2ccccc2c1C1=C(Br)C(=O)NC1=O)Nc1ccccc1,inactive
15,Cc1cccc2c(C3=C(Br)C(=O)NC3=O)c(-c3ccccc3)[nH]c12,inactive
16,CCCCCCc1ccc2[nH]c(-c3ccc(OC)cc3)c(C3=C(Br)C(=O)NC3=O)c2c1,inactive
17,CCCCOc1ccc2[nH]c(-c3ccc(OC)cc3)c(C3=C(Br)C(=O)NC3=O)c2c1,inactive
18,CCCOc1ccc2[nH]c(-c3ccc(OC)cc3)c(C3=C(Br)C(=O)NC3=O)c2c1,inactive
19,CCCCCCOc1ccc2[nH]c(-c3ccccc3)c(C3=C(Br)C(=O)NC3=O)c2c1,inactive

# Tested on: Mycolicibacterium smegmatis
# Experiment: Antibacterial activity against Mycobacterium smegmatis SG987 after 24 hrs by broth microdilution method
# Type: functional
# Details: not given
row,Compound,-logMIC
1,CCCCc1cccc2c(C3=C(Br)C(=O)NC3=O)c(-c3ccccc3)[nH]c12,4.8
2,O=C1NC(=O)C(c2c(-c3ccc(OCc4cccc5ccccc45)cc3)[nH]c3ccccc23)=C1Br,5.5
3,CCCCc1ccc2[nH]c(-c3ccccc3)c(C3=C(Br)C(=O)NC3=O)c2c1,5.7
4,O=C(CCCc1[nH]c2ccccc2c1C1=C(Br)C(=O)NC1=O)Nc1ccccc1,4.3
5,CCCc1cccc2c(C3=C(Br)C(=O)NC3=O)c(-c3ccc(OC)cc3)[nH]c12,4.8
6,CCc1cccc2c(C3=C(Br)C(=O)NC3=O)c(-c3ccccc3)[nH]c12,4.5
7,COc1cccc(-c2[nH]c3ccc(OC)cc3c2C2=C(Br)C(=O)NC2=O)c1,4.8
8,CCCOc1ccc2[nH]c(-c3ccccc3)c(C3=C(Br)C(=O)NC3=O)c2c1,4.2
9,CCOc1ccc2[nH]c(-c3cccc(OC)c3)c(C3=C(Br)C(=O)NC3=O)c2c1,5.2
10,COc1cccc(-c2[nH]c3ccc(C)cc3c2C2=C(Br)C(=O)NC2=O)c1,5.1
11,Cc1cccc(NC(=O)CCCc2[nH]c3ccccc3c2C2=C(Br)C(=O)NC2=O)c1,4.6
12,CCc1ccc2[nH]c(-c3ccccc3)c(C3=C(Br)C(=O)NC3=O)c2c1,5.4
13,O=C(O)c1cn(C2CC2)c2cc(N3CCNCC3)c(F)cc2c1=O [CIPROFLOXACIN],5.9
14,O=C(CCCCCCc1[nH]c2ccccc2c1C1=C(Br)C(=O)NC1=O)Nc1ccccc1,4.9
15,Cc1cccc2c(C3=C(Br)C(=O)NC3=O)c(-c3ccccc3)[nH]c12,4.5

# Same assay, conditions: Mycolicibacterium smegmatis, SG987, 24 h
row,MIC,Compound
1,14.7 µM,CCCCc1cccc2c(C3=C(Br)C(=O)NC3=O)c(-c3ccccc3)[nH]c12
2,3.16 µM,O=C1NC(=O)C(c2c(-c3ccc(OCc4cccc5ccccc45)cc3)[nH]c3ccccc23)=C1Br
3,1.9 µM,CCCCc1ccc2[nH]c(-c3ccccc3)c(C3=C(Br)C(=O)NC3=O)c2c1
4,55 µM,O=C(CCCc1[nH]c2ccccc2c1C1=C(Br)C(=O)NC1=O)Nc1ccccc1
5,14.2 µM,CCCc1cccc2c(C3=C(Br)C(=O)NC3=O)c(-c3ccc(OC)cc3)[nH]c12
6,31.7 µM,CCc1cccc2c(C3=C(Br)C(=O)NC3=O)c(-c3ccccc3)[nH]c12
7,15.8 µM,COc1cccc(-c2[nH]c3ccc(OC)cc3c2C2=C(Br)C(=O)NC2=O)c1
8,58.8 µM,CCCOc1ccc2[nH]c(-c3ccccc3)c(C3=C(Br)C(=O)NC3=O)c2c1
9,6.31 µM,CCOc1ccc2[nH]c(-c3cccc(OC)c3)c(C3=C(Br)C(=O)NC3=O)c2c1
10,7.94 µM,COc1cccc(-c2[nH]c3ccc(C)cc3c2C2=C(Br)C(=O)NC2=O)c1
11,27 µM,Cc1cccc(NC(=O)CCCc2[nH]c3ccccc3c2C2=C(Br)C(=O)NC2=O)c1
12,4 µM,CCc1ccc2[nH]c(-c3ccccc3)c(C3=C(Br)C(=O)NC3=O)c2c1
13,1.2 µM,O=C(O)c1cn(C2CC2)c2cc(N3CCNCC3)c(F)cc2c1=O [CIPROFLOXACIN]
14,12.6 µM,O=C(CCCCCCc1[nH]c2ccccc2c1C1=C(Br)C(=O)NC1=O)Nc1ccccc1
15,32.6 µM,Cc1cccc2c(C3=C(Br)C(=O)NC3=O)c(-c3ccccc3)[nH]c12

# Tested on: not listed separately
# Experiment: Partition coefficient, log P of the compound
# Type: physicochemical
# Details: octanol/water
row,logP,Compound
1,3.88,CCCCc1cccc2c(C3=C(Br)C(=O)NC3=O)c(-c3ccccc3)[nH]c12
2,3.76,O=C1NC(=O)C(c2c(-c3ccc(OCc4cccc5ccccc45)cc3)[nH]c3ccccc23)=C1Br
3,3.74,CCCCc1ccc2[nH]c(-c3ccccc3)c(C3=C(Br)C(=O)NC3=O)c2c1
4,2.56,O=C(CCCc1[nH]c2ccccc2c1C1=C(Br)C(=O)NC1=O)Nc1ccccc1
5,3.58,CCCc1cccc2c(C3=C(Br)C(=O)NC3=O)c(-c3ccc(OC)cc3)[nH]c12
6,3.42,CCc1cccc2c(C3=C(Br)C(=O)NC3=O)c(-c3ccccc3)[nH]c12
7,4.1,CCCCCCOc1ccc2[nH]c(-c3ccc(OC)cc3)c(C3=C(Br)C(=O)NC3=O)c2c1
8,2.79,COc1cccc(-c2[nH]c3ccc(OC)cc3c2C2=C(Br)C(=O)NC2=O)c1
9,3.16,CCCOc1ccc2[nH]c(-c3ccccc3)c(C3=C(Br)C(=O)NC3=O)c2c1
10,2.97,CCOc1ccc2[nH]c(-c3cccc(OC)c3)c(C3=C(Br)C(=O)NC3=O)c2c1
11,3.12,COc1cccc(-c2[nH]c3ccc(C)cc3c2C2=C(Br)C(=O)NC2=O)c1
12,2.56,Cc1cccc(NC(=O)CCCc2[nH]c3ccccc3c2C2=C(Br)C(=O)NC2=O)c1
13,3.15,CCc1ccc2[nH]c(-c3ccccc3)c(C3=C(Br)C(=O)NC3=O)c2c1
14,2.85,O=C(CCCCCCc1[nH]c2ccccc2c1C1=C(Br)C(=O)NC1=O)Nc1ccccc1
15,3.19,Cc1cccc2c(C3=C(Br)C(=O)NC3=O)c(-c3ccccc3)[nH]c12
16,3.43,CCCCOc1ccc2[nH]c(-c3ccc(OC)cc3)c(C3=C(Br)C(=O)NC3=O)c2c1
17,3.12,CCCOc1ccc2[nH]c(-c3ccc(OC)cc3)c(C3=C(Br)C(=O)NC3=O)c2c1
18,4.08,CCCCCCOc1ccc2[nH]c(-c3ccccc3)c(C3=C(Br)C(=O)NC3=O)c2c1

# Reference: ChEMBL document CHEMBL1149805, “Antibacterial activity of a novel series of 3-bromo-4-(1H-3-indolyl)-2,5-dihydro-1H-2,5-pyrroledione derivatives--an extended structure-activity relationship study” (Eur J Med Chem, 2008)
